Measurements from patent US5561161A, “Methods of administering and pharmaceutical formulations containing n-substituted benzamides and/or acid addition salts thereof” (priority 1994, dated 1996).
Entries after “also recorded” stand apart in the source; their conditions may differ. Counter-ions that a name gives are not always drawn. Like-named read-outs stand apart in the source and are kept apart here.

Tests used:
[1] = cited from earlier work
[2] = system: human lung adenocarcinoma (H-2981); test: Radiosensitization of human lung adenocarcinoma xenografts in Scid mice; conditions: 2 mg/kg i.m., -1 or -2 hours to 1 Gy; hydrochloride
Protocol: Tumor tissue suspensions were prepared and inoculated subcutaneously into the midback region of 3-5 week old Scid mice so that 10 mm×10 mm tumors were grown in about 25 days. […] The tumor volumes were measured and recorded every 2-3 days and analyzed by a t-test at day 17 after inoculation.

[3] = system: dopamine2 (D2) receptor; conditions: cited from earlier work
[4] = system: human cancer patients; conditions: intravenous, cisplatin chemotherapy; cited from earlier work
[5] = system: 5-hydroxytryptamine3 (5-HT3) receptor; conditions: cited from earlier work

| SMILES | solubility in water / aqueous vehicles ([1]; hydrochloride) | radiosensitization, effect of pH (acidic vs neutral form) [2] | binding to D2 receptor [3] | sodium ion dependence of D2 receptor binding [3] | inhibition of emesis [4] | binding to 5-HT3 receptor [5] | solubility in water / aqueous vehicles [1] |
| --- | --- | --- | --- | --- | --- | --- | --- |
| CCN(CC)CCNC(=O)c1cc(Cl)c(N)cc1OC [metoclopramide hydrochloride] | freely soluble in water | not altered; also recorded: Lack of any measurable difference |  |  |  |  |  |
| CCN(CC)CCNC(=O)c1cc(Cl)c(N)cc1OC [metoclopramide] |  |  | known to bind | sodium ion dependent | can inhibit the biological response of emesis | known to bind | quite insoluble in water |
